Laboratory results as given in PubChem BioAssay AID1259411 (Chemical Carcinogenesis Research Information System (CCRIS), 2018).
Active and inactive are the calls of the source. How the calls were made is not given here.

Tested on: rodent carcinogenicity bioassays, tumor incidence
Test: CCRIS carcinogenicity studies
In short: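 NCI-built, expert-reviewed records of carcinogenicity and related test outcomes (mutagenicity, tumor promotion/inhibition) compiled from published and report sources, historical span 1985-2011, not updated.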

C=Cc1ccccc1
carcinogen call (Species: MOUSE, Strain/Sex: B6C3F1/FEMALE, Route: GAVAGE, Dose: 0, 150, 300 MG/KG FOR 78 WK (STUDY DURATION: 91 WK), Dose: 0, 150, 300 MG/KG FOR 78 WK (STUDY DURATION: 91 WK)): inactive; negative
carcinogen call (Species: MOUSE, Strain/Sex: B6C3F1/MALE, Route: GAVAGE, Dose: 0, 150, 300 MG/KG FOR 78 WK (STUDY DURATION: 91 WK), Dose: 0, 150, 300 MG/KG FOR 78 WK (STUDY DURATION: 91 WK), Tumor Site: Type of Lesion: LUNG: ADENOMA, CARCINOMA): equivocal
carcinogen call (Species: MOUSE, Strain/Sex: C57BL/FEMALE, Route: GAVAGE, Dose: 0, 300 MG/KG BW IN 0.1 ML OLIVE OIL FOR LIFE BEGINNING POST WEANING ADMINISTERED TO OFFSPRING OF FEMALES GIVEN 1350 MG/K): inactive; negative
carcinogen call (Species: MOUSE, Strain/Sex: C57BL/FEMALE, Route: GAVAGE, Dose: 0, 300 MG/KG BW IN 0.1 ML OLIVE OIL ONCE ON DAY 17 OF PREGNANCY (STUDY DURATION: 120 WK)): inactive; negative
carcinogen call (Species: MOUSE, Strain/Sex: C57BL/MALE, Route: GAVAGE, Dose: 0, 300 MG/KG BW IN 0.1 ML OLIVE OIL FOR LIFE BEGINNING POST WEANING ADMINISTERED TO OFFSPRING OF FEMALES GIVEN 300 MG/KG): inactive; negative
carcinogen call (Species: MOUSE, Strain/Sex: CD-1/FEMALE, Route: INHALATION, Dose: 0, 20, 40, 80, 160 PPM IN CHAMBER FOR 6 HR/D 5D/WK FOR 98 WK (STUDY DURATION: 98 WK), Dose: 0, 20, 40, 80, 160 PPM IN CHAMBER FOR 6 HR/D 5D/WK FOR 98 WK (STUDY DURATION: 98 WK), Tumor Site: Type of Lesion: LUNG: BRONCHIOLOALVEOLAR ADENOMA, BRONCHIOLOALVEOLAR CARCINOMA): active; positive
carcinogen call (Species: MOUSE, Strain/Sex: CD-1/MALE, Route: INHALATION, Dose: 0, 20, 40, 80, 160 PPM IN CHAMBER FOR 6 HR/D 5D/WK FOR 104 WK (STUDY DURATION: 104 WK), Dose: 0, 20, 40, 80, 160 PPM IN CHAMBER FOR 6 HR/D 5D/WK FOR 104 WK (STUDY DURATION: 104 WK), Tumor Site: Type of Lesion: LUNG: BRONCHIOLOALVEOLAR ADENOMA): active; positive
carcinogen call (Species: MOUSE, Strain/Sex: O20/FEMALE, Route: GAVAGE, Dose: 0, 1350 MG/KG BW IN 0.1 ML OLIVE OIL FOR 16 WK POST WEANING ADMINISTERED TO OFFSPRING OF FEMALES GIVEN 1350 MG/KG ON DAY, Tumor Site: Type of Lesion: LUNG: ADENOMA OR CARCINOMA): active; positive
carcinogen call (Species: MOUSE, Strain/Sex: O20/FEMALE, Route: GAVAGE, Dose: 0, 1350 MG/KG BW IN 0.1 ML OLIVE OIL ONCE ON DAY 17 OF PREGNANCY (STUDY DURATION: 120 WK)): inactive; negative
carcinogen call (Species: MOUSE, Strain/Sex: O20/MALE,FEMALE, Route: GAVAGE, Tumor Site: Type of Lesion: LUNG: ADENOMA, ADENOCARCINOMA): active; positive
carcinogen call (Species: MOUSE, Strain/Sex: O20/MALE, Route: GAVAGE, Dose: 0, 1350 MG/KG BW IN 0.1 ML OLIVE OIL FOR 16 WK POST WEANING ADMINISTERED TO OFFSPRING OF FEMALES GIVEN 1350 MG/KG ON DAY, Tumor Site: Type of Lesion: LUNG: ADENOMA OR CARCINOMA): active; positive
carcinogen call (Species: MOUSE, Strain/Sex: STRAIN-A/FEMALE, Route: INTRAPERITONEAL, Dose: 0, 10 UMOL IN 0.1 ML OLIVE OIL 3/WK FOR 20 DOSES (TOTAL DOSE: 200 UMOL) (STUDY DURATION: 27 WK)): inactive; negative
carcinogen call (Species: RAT, Strain/Sex: BDIV/FEMALE, Route: GAVAGE, Dose: 0, 500 MG/KG BW IN 0.3 ML OLIVE OIL FOR LIFE BEGINNING POST WEANING ADMINISTERED TO OFFSPRING OF FEMALES GIVEN 1350 MG/K): inactive; negative
carcinogen call (Species: RAT, Strain/Sex: BDIV/FEMALE, Route: GAVAGE, Dose: 0, 1350 MG/KG BW IN 0.3 ML OLIVE OIL ONCE ON DAY 17 OF PREGNANCY (STUDY DURATION: 120 WK)): inactive; negative
carcinogen call (Species: RAT, Strain/Sex: BDIV/MALE, Route: GAVAGE, Dose: 0, 500 MG/KG BW IN 0.3 ML OLIVE OIL FOR LIFE BEGINNING POST WEANING ADMINISTERED TO OFFSPRING OF FEMALES GIVEN 1350 MG/K): inactive; negative
carcinogen call (Species: RAT, Strain/Sex: F344/FEMALE, Route: GAVAGE, Dose: 0, 500 MG/KG FOR 103 WK (STUDY DURATION: 104 WK), 1,000, 2,000 MG/KG FOR 78 WK (STUDY DURATION: 105 WK), Dose: 0, 500 MG/KG FOR 103 WK (STUDY DURATION: 104 WK), 1,000, 2,000 MG/KG FOR 78 WK (STUDY DURATION: 105 WK)): inactive; negative
carcinogen call (Species: RAT, Strain/Sex: F344/MALE, Route: GAVAGE, Dose: 0, 500 MG/KG FOR 103 WK (STUDY DURATION: 104 WK), 1,000, 2,000 MG/KG FOR 78 WK (STUDY DURATION: 105 WK), Dose: 0, 500 MG/KG FOR 103 WK (STUDY DURATION: 104 WK), 1,000, 2,000 MG/KG FOR 78 WK (STUDY DURATION: 105 WK)): inactive; negative
carcinogen call (Species: RAT, Strain/Sex: SPRAGUE-DAWLEY/FEMALE, Route: GAVAGE, Dose: 0, 50, 250 MG/KG BW IN OLIVE OIL 1/D 4-5 D/WK FOR 52 WK (STUDY DURATION: LIFETIME), Dose: 0, 50, 250 MG/KG BW IN OLIVE OIL 1/D 4-5 D/WK FOR 52 WK (STUDY DURATION: LIFETIME), Tumor Site: Type of Lesion: [BRAIN WAS ONLY SITE EVALUATED]): inactive; negative
carcinogen call (Species: RAT, Strain/Sex: SPRAGUE-DAWLEY/FEMALE, Route: INHALATION, Dose: 0, 25, 50, 100, 200, 300 PPM 4 HR/D, 5 D/WK FOR 52 WK (STUDY DURATION: LIFESPAN), Dose: 0, 25, 50, 100, 200, 300 PPM 4 HR/D, 5 D/WK FOR 52 WK (STUDY DURATION: LIFESPAN), Tumor Site: Type of Lesion: MAMMARY GLAND: BENIGN TUMOR, MALIGNANT TUMOR): active; positive
carcinogen call (Species: RAT, Strain/Sex: SPRAGUE-DAWLEY/FEMALE, Route: INHALATION, Dose: 0, 25, 50, 100, 200, 300 PPM IN AIR 4 HR/D 5 D/WK FOR 52 WK (STUDY DURATION: LIFETIME), Dose: 0, 25, 50, 100, 200, 300 PPM IN AIR 4 HR/D 5 D/WK FOR 52 WK (STUDY DURATION: LIFETIME), Tumor Site: Type of Lesion: [BRAIN WAS ONLY SITE EVALUATED]): inactive; negative
carcinogen call (Species: RAT, Strain/Sex: SPRAGUE-DAWLEY/FEMALE, Route: INTRAGASTRIC, Dose: 0, 50, 250 MG/KG IN OLIVE OIL 1/D, 4-5 D/WK FOR 52 WK (STUDY DURATION: LIFESPAN), Dose: 0, 50, 250 MG/KG IN OLIVE OIL 1/D, 4-5 D/WK FOR 52 WK (STUDY DURATION: LIFESPAN)): inactive; negative
carcinogen call (Species: RAT, Strain/Sex: SPRAGUE-DAWLEY/FEMALE, Route: INTRAPERITONEAL, Dose: 0, 50 MG/RAT IN OLIVE OIL, 1/2 MO FOR 8 MO (STUDY DURATION: LIFESPAN)): inactive; negative
carcinogen call (Species: RAT, Strain/Sex: SPRAGUE-DAWLEY/FEMALE, Route: SUBCUTANEOUS, Dose: 0, 50 MG/RAT IN OLIVE OIL ONCE (STUDY DURATION: LIFESPAN)): inactive; negative
carcinogen call (Species: RAT, Strain/Sex: SPRAGUE-DAWLEY/MALE, Route: GAVAGE, Dose: 0, 50, 250 MG/KG BW IN OLIVE OIL 1/D 4-5 D/WK FOR 52 WK (STUDY DURATION: LIFETIME), Dose: 0, 50, 250 MG/KG BW IN OLIVE OIL 1/D 4-5 D/WK FOR 52 WK (STUDY DURATION: LIFETIME), Tumor Site: Type of Lesion: [BRAIN WAS ONLY SITE EVALUATED]): inactive; negative
carcinogen call (Species: RAT, Strain/Sex: SPRAGUE-DAWLEY/MALE, Route: INHALATION, Dose: 0, 25, 50, 100, 200, 300 PPM 4 HR/D, 5 D/WK FOR 52 WK (STUDY DURATION: LIFESPAN), Dose: 0, 25, 50, 100, 200, 300 PPM 4 HR/D, 5 D/WK FOR 52 WK (STUDY DURATION: LIFESPAN)): inactive; negative
carcinogen call (Species: RAT, Strain/Sex: SPRAGUE-DAWLEY/MALE, Route: INHALATION, Dose: 0, 25, 50, 100, 200, 300 PPM IN AIR 4 HR/D 5 D/WK FOR 52 WK (STUDY DURATION: LIFETIME), Dose: 0, 25, 50, 100, 200, 300 PPM IN AIR 4 HR/D 5 D/WK FOR 52 WK (STUDY DURATION: LIFETIME), Tumor Site: Type of Lesion: [BRAIN WAS ONLY SITE EVALUATED]): inactive; negative
carcinogen call (Species: RAT, Strain/Sex: SPRAGUE-DAWLEY/MALE, Route: INTRAGASTRIC, Dose: 0, 50, 250 MG/KG IN OLIVE OIL 1/D, 4-5 D/WK FOR 52 WK (STUDY DURATION: LIFESPAN), Dose: 0, 50, 250 MG/KG IN OLIVE OIL 1/D, 4-5 D/WK FOR 52 WK (STUDY DURATION: LIFESPAN)): inactive; negative
carcinogen call (Species: RAT, Strain/Sex: SPRAGUE-DAWLEY/MALE, Route: INTRAPERITONEAL, Dose: 0, 50 MG/RAT IN OLIVE OIL, 1/2 MO FOR 8 MO (STUDY DURATION: LIFESPAN)): inactive; negative
carcinogen call (Species: RAT, Strain/Sex: SPRAGUE-DAWLEY/MALE, Route: SUBCUTANEOUS, Dose: 0, 50 MG/RAT IN OLIVE OIL ONCE (STUDY DURATION: LIFESPAN)): inactive; negative
carcinogen call (Species: RAT, Strain/Sex: STRAIN-CD/FEMALE, Route: INHALATION, Dose: 0, 50, 200, 500, 1000 PPM 6HR/D 5 D/WK FOR 104 WK (STUDY DURATION:107 WK), Dose: 0, 50, 200, 500, 1000 PPM 6HR/D 5 D/WK FOR 104 WK (STUDY DURATION:107 WK)): inactive; negative
carcinogen call (Species: RAT, Strain/Sex: STRAIN-CD/MALE, Route: INHALATION, Dose: 0, 50, 200, 500, 1000 PPM 6 HR/D 5 D/WK FOR 104 WK (STUDY DURATION:107 WK), Dose: 0, 50, 200, 500, 1000 PPM 6 HR/D 5 D/WK FOR 104 WK (STUDY DURATION:107 WK)): inactive; negative
